We go through 15 molecules from patent publication US20250179027A1, “CYCLOALKYL OR HETEROCYCLYL SUBSTITUTED HETEROARYL COMPOUND, AND COMPOSITION AND USE THEREOF” (Shenzhen TargetRx, Inc., priority 2022, published 2025).

What all share (assay type): biochemical
Holding throughout (conditions): HTRF TK kit
Background: Time-resolved FRET reads energy transfer from a long-lived donor to a nearby acceptor.

The target in one assay is T1, EGFR (Homo sapiens, UniProt P00533).
T1 construct: purchased Carna 08-115
Description: HTRF kinase activity inhibition assay, EGFR. The text has this:
(§1) In this assay, the HTRF TK Kit (Catalog No. 62TKOPEC) provided by Cisbio was used to detect the inhibitory activity of compounds on BTK kinase and BTK C481S kinase and the selectivity of compounds relative to EGFR, ITK and TEC kinases.
(§2) Reagents and consumables: BTK kinase (Invitrogen, Catalog No. PV3587), BTK C481S (Carna, Product No. 08-547), ITK (Carna, Product No. 08-181), EGFR (Carna, Product No. 08-115), TEC (Carna, Product No. 08-182), HTRF-TK kit (Cisbio, Product No. 62TKOPEC), MgCl2 (Sigma, Product No. M1028), MnCl2 (Sigma, Product No. M1787), DTT (Sigma, Product No. D0632), ATP (Sigma, Product No. A7699-1 g), DMSO (Sigma, Product No. D2650), 384-well plate (PE, Product No. 6008280).
(§3) The entire operation steps were carried out on ice, and the total reaction volume was 10 μL. The compound (4 μL), substrate and ATP (4 μL), kinase (2 μL) were added in sequence to a 384-well plate, and shaked for 30 seconds. After an appropriate time at room temperature, the detection reagent was added. After 1 hour at room temperature, the plate was detected with a microplate reader. The specific steps were as follows: • a) 1× kinase buffer solution required for kinase detection was calculated according to the amount of the detection compound, and prepared as needed; • b) compounds with 2.5×working concentration were prepared, the 100 times gradient concentration solution of compounds was diluted by 4 μL to the desired concentration, mixed well, and added to each well at 4 μL per well; • c) 5×working concentration of substrate and ATP were prepared, mixed in a ratio of 1:1 before adding to a 384-well plate, and added to each well at 4 μL per well; • d) 5×working concentration of kinase was prepared, and 2 μL was added to each well; • e) the plate was shaked on a microplate oscillator for 30 seconds, sealed with a sealing membrane, and reacted at room temperature for an appropriate time; • f) 4×working concentrations of streptavidin XL-665 and TK antibody-cryptate compound were prepared, mixed in a ratio of 1:1 before adding to a 384-well plate, and added to each well at 10 μL per well; • g) the plate was read after reacting at room temperature for 1 hour; • h) the wells with only substrate, ATP and 1% DMSO added but no kinase were blank control wells, and the wells with only substrate, ATP, 1% DMSO and kinase were positive control wells.
(§4) Readings: The values of 620 nm (cryptate) and 665 nm (XL665) were read with a BioTek Synerg Neo2 microplate reader, the ratio of 665/620 per well was calculated, and the data were exported. Data analysis: IC50 was calculated using GraphPad Prism 7.0 software. The following nonlinear fitting formula was used to obtain the IC50 (half inhibitory concentration) of compounds:
(§5) [formula] • X: Compound concentration log value • Y: Inhibition rate (% inhibition)
(§6) The kinase inhibition rate (% inhibition rate) was calculated as: […]

The target in the next assay is T2, ITK (Homo sapiens, UniProt Q08881).
T2 construct: purchased Carna 08-181
T2 sequence (Q08881 1-620): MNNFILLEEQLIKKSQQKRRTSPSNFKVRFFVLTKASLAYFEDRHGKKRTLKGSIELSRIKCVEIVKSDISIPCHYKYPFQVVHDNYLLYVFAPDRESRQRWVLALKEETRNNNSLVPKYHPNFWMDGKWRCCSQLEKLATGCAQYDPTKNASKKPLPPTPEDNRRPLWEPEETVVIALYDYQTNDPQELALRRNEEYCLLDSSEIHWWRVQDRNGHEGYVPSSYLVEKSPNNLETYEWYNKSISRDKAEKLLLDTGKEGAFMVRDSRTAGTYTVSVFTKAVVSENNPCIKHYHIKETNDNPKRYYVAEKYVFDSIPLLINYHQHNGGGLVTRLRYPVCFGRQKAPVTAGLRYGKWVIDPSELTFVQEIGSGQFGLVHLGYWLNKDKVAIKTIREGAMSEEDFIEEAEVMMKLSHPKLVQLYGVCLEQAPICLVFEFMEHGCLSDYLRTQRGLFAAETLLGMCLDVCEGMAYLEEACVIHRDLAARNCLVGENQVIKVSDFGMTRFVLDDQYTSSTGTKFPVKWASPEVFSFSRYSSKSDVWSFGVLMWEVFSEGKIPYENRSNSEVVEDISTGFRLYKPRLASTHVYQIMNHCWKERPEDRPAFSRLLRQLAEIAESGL
In words: HTRF kinase activity inhibition assay, ITK.
Source text: as §1, §2, §3, §4, §5, §6

Another assay has as its target T3, TEC (Homo sapiens, UniProt P42680).
T3 construct: purchased Carna 08-182
T3 sequence (P42680 1-631): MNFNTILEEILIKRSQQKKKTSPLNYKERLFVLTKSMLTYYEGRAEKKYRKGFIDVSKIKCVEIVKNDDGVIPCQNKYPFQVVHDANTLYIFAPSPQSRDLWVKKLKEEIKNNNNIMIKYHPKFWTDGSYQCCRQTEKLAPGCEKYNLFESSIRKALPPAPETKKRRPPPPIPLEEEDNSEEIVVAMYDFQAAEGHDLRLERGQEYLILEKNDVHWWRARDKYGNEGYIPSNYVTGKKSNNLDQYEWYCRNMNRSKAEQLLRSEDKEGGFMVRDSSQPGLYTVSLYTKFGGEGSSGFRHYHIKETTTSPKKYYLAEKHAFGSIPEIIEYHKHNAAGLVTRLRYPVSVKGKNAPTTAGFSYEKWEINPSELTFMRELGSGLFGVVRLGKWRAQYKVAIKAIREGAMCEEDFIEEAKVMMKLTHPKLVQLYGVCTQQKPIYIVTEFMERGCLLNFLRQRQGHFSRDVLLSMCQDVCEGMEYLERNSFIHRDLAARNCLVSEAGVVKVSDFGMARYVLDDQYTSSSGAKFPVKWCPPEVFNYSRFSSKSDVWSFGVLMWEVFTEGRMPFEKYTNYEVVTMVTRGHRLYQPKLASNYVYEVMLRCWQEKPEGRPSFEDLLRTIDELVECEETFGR
Description: HTRF kinase activity inhibition assay, TEC.
Source text: as §1, §2, §3, §4, §5, §6

Where only a bound is given, the exact number is not on record here.

One may read the IC50 as the concentration that gives 50% inhibition.

T1 sequence (P00533 669-1210 limits assumed): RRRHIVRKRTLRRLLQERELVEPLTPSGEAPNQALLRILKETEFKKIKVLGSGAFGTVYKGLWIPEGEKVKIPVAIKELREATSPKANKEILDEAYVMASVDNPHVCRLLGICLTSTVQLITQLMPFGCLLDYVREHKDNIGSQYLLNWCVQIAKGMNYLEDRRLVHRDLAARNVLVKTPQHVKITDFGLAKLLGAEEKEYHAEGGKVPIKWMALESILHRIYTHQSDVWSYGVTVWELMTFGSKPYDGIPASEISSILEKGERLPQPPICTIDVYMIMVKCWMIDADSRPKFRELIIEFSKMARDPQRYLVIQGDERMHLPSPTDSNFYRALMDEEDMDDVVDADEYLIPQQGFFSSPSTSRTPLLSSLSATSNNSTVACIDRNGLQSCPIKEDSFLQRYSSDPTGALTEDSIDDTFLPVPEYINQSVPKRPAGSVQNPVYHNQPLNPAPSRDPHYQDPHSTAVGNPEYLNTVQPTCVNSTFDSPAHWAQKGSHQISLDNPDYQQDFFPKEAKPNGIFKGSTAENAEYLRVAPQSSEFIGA

With `COc1ccc(F)cc1C(=O)NCc1ccc(-c2nn(C3CCCC(O)C3)c3ncnc(N)c23)cc1` (single isomer, unassigned) [Example 5], the IC50 at EGFR was 50 to 100 nM; at ITK, greater than 10000 nM; at TEC, 100 to 1000 nM.
The corresponding values for `COc1ccc(F)cc1C(=O)NCc1ccc(-c2nn(C3CCCC(O)C3)c3ncnc(N)c23)cc1` (single isomer, unassigned) [Example 6] are 50 to 100 nM, greater than 10000 nM and 100 to 1000 nM.
The corresponding values for `COc1ccc(F)cc1C(=O)NCc1ccc(-c2nn(C3CCCC(O)C3)c3ncnc(N)c23)cc1` (single isomer, unassigned) [Example 7] are 100 to 1000 nM, greater than 10000 nM and 100 to 1000 nM.
With `COc1ccc(F)cc1C(=O)NCc1ccc(-c2nn(C3CCCC(O)C3)c3ncnc(N)c23)cc1` (single isomer, unassigned) [Example 8], the IC50 on EGFR was 100 to 1000 nM; on ITK, greater than 10000 nM; on TEC, 1000 to 10000 nM.
For the molecule `COc1ccc(F)cc1C(=O)NCc1ccc(-c2nn(C3CCC(CO)OC3)c3ncnc(N)c23)cc1` (single isomer, unassigned) [Example 18, N-(4-(4-amino-1-(6-(hydroxymethyl)tetrahydro-2H-pyran-3-yl)-1H-pyrazolo[3,4-d]pyrimidin-3-yl)benzyl)-5-fluoro-2-methoxybenzamide], the IC50 on EGFR was 50 to 100 nM; on ITK it was greater than 10000 nM; on TEC, 100 to 1000 nM.
The corresponding values for `COc1ccc(F)cc1C(=O)NCc1ccc(-c2nc(C3CCCC(O)C3)n3ccnc(N)c23)cc1` (single isomer, unassigned) [Example 22, N-(4-(8-amino-3-(3-hydroxycyclohexanyl)imidazo[1,5-a]pyrazin-1-yl)benzyl)-5-fluoro-2-methoxybenzamide] are 10 to 50 nM, greater than 10000 nM and 100 to 1000 nM.
The corresponding values for `COc1ccc(F)cc1C(=O)NCc1ccc(-c2nn(C3CCC(O)C3)c3ncnc(N)c23)cc1` (single isomer, unassigned) [Example 31, N-(4-(4-amino-1-(3-hydroxycyclopentanyl)-1H-pyrazolo[3,4-d]pyrimidin-3-yl)benzyl)-5-fluoro-2-methoxybenzamide] are 100 to 1000 nM, greater than 10000 nM and 100 to 1000 nM.
As for `COc1ccc(F)cc1C(=O)NCc1ccc(-c2cc(C3CCC(CO)OC3)n3ncnc(N)c23)cc1` (single isomer, unassigned) [Example 59, N-(4-(4-amino-7-(6-(hydroxymethyl)tetrahydro-2H-pyran-3-yl)pyrrolo[2,1-f][1,2,4]triazin-5-yl)benzyl)-5-fluoro-2-methoxybenzamide], the IC50 at EGFR is 10 to 50 nM; at ITK, greater than 10000 nM; at TEC it was 1000 to 10000 nM.
The corresponding values for `COc1ccc(F)cc1C(=O)NCc1ccc(-c2cc(C3CCC(CO)OC3)n3ncnc(N)c23)cc1` (single isomer, unassigned) [Example 60, N-(4-(4-amino-7-(6-(hydroxymethyl)tetrahydro-2H-pyran-3-yl)pyrrolo[2,1-f][1,2,4]triazin-5-yl)benzyl)-5-fluoro-2-methoxybenzamide] are no more than 10 nM, greater than 10000 nM and 100 to 1000 nM.
Consider `COc1ccc(F)cc1C(=O)NCc1ccc(-c2nn(C3CCCC(O)C3)c3ncnc(N)c23)cc1` (stereo not drawn) [Example 4], for which the IC50 on EGFR is 100 to 1000 nM; at ITK, greater than 10000 nM; at TEC, 100 to 1000 nM.
`COc1ccc(F)cc1C(=O)NCc1ccc(-c2nc(C3CCCC(O)C3)n3ccnc(N)c23)cc1` (stereo not drawn) [Example 20, N-(4-(8-amino-3-(3-hydroxycyclohexanyl)imidazo[1,5-a]pyrazin-1-yl)benzyl)-5-fluoro-2-methoxybenzamide]: the IC50 on EGFR was 10 to 50 nM; at ITK, greater than 10000 nM; at TEC, 100 to 1000 nM.
The corresponding values for `COc1ccc(F)cc1C(=O)NCc1ccc(-c2nn(C3CCC(O)CC3)c3ncnc(N)c23)cc1` [Example 29, N-(4-(4-amino-1-((1R,4R)-4-hydroxycyclohexyl)-1H-pyrazolo[3,4-d]pyrimidin-3-yl)benzyl)-5-fluoro-2-methoxybenzamide] are 50 to 100 nM, greater than 10000 nM and 100 to 1000 nM.
The corresponding values for `COc1ccc(F)cc1C(=O)NCc1ccc(-c2nn([C@H]3CC[C@@H](O)CC3)c3ncnc(N)c23)cc1` [Example 30, N-(4-(4-amino-1-((1S,4S)-4-hydroxycyclohexyl)-1H-pyrazolo[3,4-d]pyrimidin-3-yl)benzyl)-5-fluoro-2-methoxybenzamide] are 50 to 100 nM, greater than 10000 nM and 100 to 1000 nM.
The corresponding values for `COc1ccc(F)cc1C(=O)NCc1ccc(-c2nn([C@H]3CC[C@@H](CO)CC3)c3ncnc(N)c23)cc1` [Example 55, cis-N-(4-(4-amino-1-((1S,4S)-4-(hydroxymethyl)cyclohexyl)-1H-pyrazolo[3,4-d]pyrimidin-3-yl)benzyl)-5-fluoro-2-methoxybenzamide] are 10 to 50 nM, greater than 10000 nM and 100 to 1000 nM.
For the molecule `COc1ccc(F)cc1C(=O)NCc1ccc(-c2nn([C@H]3CC[C@H](CO)CC3)c3ncnc(N)c23)cc1` [Example 56, trans-N-(4-(4-amino-1-((1R,4R)-4-(hydroxymethyl)cyclohexyl)-1H-pyrazolo[3,4-d]pyrimidin-3-yl)benzyl)-5-fluoro-2-methoxybenzamide], the IC50 at EGFR was 10 to 50 nM; on ITK it was greater than 10000 nM; on TEC, 100 to 1000 nM.
